This is an account of results in article PMC3070159 (Journal of medicinal chemistry, 2010).

This test concerns the target T1, human sEH (Homo sapiens, UniProt P34913).
T1 sequence (P34913 1-555): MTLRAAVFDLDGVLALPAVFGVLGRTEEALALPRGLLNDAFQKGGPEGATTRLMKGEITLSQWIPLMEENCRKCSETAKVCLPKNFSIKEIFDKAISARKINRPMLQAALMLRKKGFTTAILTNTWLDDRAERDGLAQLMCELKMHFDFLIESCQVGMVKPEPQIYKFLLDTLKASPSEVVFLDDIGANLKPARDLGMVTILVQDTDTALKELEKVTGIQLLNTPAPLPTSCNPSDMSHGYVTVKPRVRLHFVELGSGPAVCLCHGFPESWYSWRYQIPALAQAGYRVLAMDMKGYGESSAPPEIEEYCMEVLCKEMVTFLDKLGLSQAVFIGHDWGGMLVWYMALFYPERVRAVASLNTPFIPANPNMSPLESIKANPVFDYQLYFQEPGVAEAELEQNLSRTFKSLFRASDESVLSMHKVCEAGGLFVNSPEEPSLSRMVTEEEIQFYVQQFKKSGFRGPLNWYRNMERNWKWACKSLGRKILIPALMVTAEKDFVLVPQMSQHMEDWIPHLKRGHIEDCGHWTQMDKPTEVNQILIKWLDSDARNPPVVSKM
Kind of test: fluorescent substrate. Format: biochemical.

As for `CC(=O)N1CCN(CCCCOc2ccc(NC(=O)NC34CC5CC(CC(C5)C3)C4)cc2)CC1` [Compound 29c, 1-(4-(4-(4-acetylpiperazin-1-yl)butoxy)phenyl)-3-adamantan-1-yl urea], the change fold is listed as −2.9.

For the molecule `CC(=O)N1CCN(CCCOc2ccc(NC(=O)NC34CC5CC(CC(C5)C3)C4)cc2)CC1` [Compound 28c, 1-(4-(3-(4-acetylpiperazin-1-yl)propoxy)phenyl)-3-adamantan-1-ylurea], where the note is “human sEH IC50 ratio”, the “fold increase in potency relative to N4-methyl substituted analog 16c” value turned out to be 5.4 fold and the “fold increase in potency relative to N4-unsubstituted analog 24c” value is 47.2 fold.

In the case of `CC(C)(C)OC(=O)N1CCN(CCCCOc2ccccc2NC(=O)NC23CC4CC(CC(C4)C2)C3)CC1` [Compound 21a], the change fold came out at 191.
